For the test, the system named is MCH receptors. Put plainly: MCH receptor activity class (method not given). The conditions noted are these: class by percent of control at 10^-7 M or IC50.

As for `CC(C)c1ccccc1NC(=O)N[C@H]1CC[C@@H](Nc2cc(N(C)C)c3ccccc3n2)CC1` [compound 2110], the class is given as 3 (Class 3 The value of percent of control at 10^−7 M was more than 60% or the value of IC50 was more than 200 nM.). Next, `Cc1c(NC(=O)N[C@H]2CC[C@@H](Nc3cc(N(C)C)c4ccccc4n3)CC2)cccc1[N+](=O)[O-]` [compound 2111]: 3 (Class 3 The value of percent of control at 10^−7 M was more than 60% or the value of IC50 was more than 200 nM.); `CCCc1ccccc1NC(=O)N[C@H]1CC[C@@H](Nc2cc(N(C)C)c3ccccc3n2)CC1` [compound 2112]: 3 (Class 3 The value of percent of control at 10^−7 M was more than 60% or the value of IC50 was more than 200 nM.); `Cc1cccc(C(C)(C)C)c1NC(=O)N[C@H]1CC[C@@H](Nc2cc(N(C)C)c3ccccc3n2)CC1` [compound 2113, N-(2-tert-butyl-6-methylphenyl)-N′-(cis-4-{[4-(dimethylamino)quinolin-2-yl]amino}cyclohexyl)urea]: 1 (Class 1: The value of percent of control at 10^−7 M was less than 40% or the value of IC50 was less than 50 nM.).

For the compound `CN(C)c1cc(N[C@H]2CC[C@@H](NC(=O)Nc3ccccc3C(C)(C)C)CC2)nc2ccccc12` [compound 2114], the class is reported as 3 (Class 3 The value of percent of control at 10^−7 M was more than 60% or the value of IC50 was more than 200 nM.). With `Cc1c(Cl)cccc1NC(=O)N[C@H]1CC[C@@H](Nc2cc(N(C)C)c3ccccc3n2)CC1` [compound 2115] the figure was 3 (Class 3 The value of percent of control at 10^−7 M was more than 60% or the value of IC50 was more than 200 nM.); with `CN(C)c1cc(N[C@H]2CC[C@@H](NC(=O)Nc3c(F)cc(Br)cc3F)CC2)nc2ccccc12` [compound 2116], 3 (Class 3 The value of percent of control at 10^−7 M was more than 60% or the value of IC50 was more than 200 nM.). Next, `CN(C)c1cc(N[C@H]2CC[C@@H](NC(=O)Nc3ccc(Cl)cc3C(F)(F)F)CC2)nc2ccccc12` [compound 2117]: 3 (Class 3 The value of percent of control at 10^−7 M was more than 60% or the value of IC50 was more than 200 nM.); `CN(C)c1cc(N[C@H]2CC[C@@H](NC(=O)Nc3ccc(C#N)cc3)CC2)nc2ccccc12` [compound 2118]: 3 (Class 3 The value of percent of control at 10^−7 M was more than 60% or the value of IC50 was more than 200 nM.). Next, `CN(C)c1cc(N[C@H]2CC[C@@H](NC(=O)NC(c3ccccc3)c3ccccc3)CC2)nc2ccccc12` [compound 2119, N-(cis-4-{[4-(dimethylamino)quinolin-2-yl]amino}cyclohexyl)-N′-(diphenylmethyl)urea]: 2 (Class 2: The value of percent of control at 10^−7 M was from 40% to 60% or the value of IC′50 was from 50 nM to 200 nM.); `Cc1cc(Br)cc(C)c1NC(=O)N[C@H]1CC[C@@H](Nc2cc(N(C)C)c3ccccc3n2)CC1` [compound 2120]: 1 (Class 1: The value of percent of control at 10^−7 M was less than 40% or the value of IC50 was less than 50 nM.).

On to `Cc1noc(-c2ccccc2)c1NC(=O)N[C@H]1CC[C@@H](Nc2cc(N(C)C)c3ccccc3n2)CC1` [compound 2121, N-(cis-4-{[4-(dimethylamino)quinolin-2-yl]amino}cyclohexyl)-N′-(3-methyl-5-phenylisoxazol-4-yl)urea], for which the class was 2 (Class 2: The value of percent of control at 10^−7 M was from 40% to 60% or the value of IC′50 was from 50 nM to 200 nM.). Next, `Cc1cc(NC(=O)N[C@H]2CC[C@@H](Nc3cc(N(C)C)c4ccccc4n3)CC2)c(C(F)(F)F)o1` [compound 2122]: 3 (Class 3 The value of percent of control at 10^−7 M was more than 60% or the value of IC50 was more than 200 nM.). With `CN(C)c1cc(N[C@H]2CC[C@@H](NC(=O)Nc3ccccc3Br)CC2)nc2ccccc12` [compound 2123] the figure was 3 (Class 3 The value of percent of control at 10^−7 M was more than 60% or the value of IC50 was more than 200 nM.).
